Several values for one entry are separate records, joined by “and”; a condition that tells them apart may be missing. Equal values may be shown once.
Columns and labels:
[1] = Further study of metabolism of earlier compounds; type: in vitro ADME; settings: 4-position of terminal phenyl easy to be oxidized
[2] = system: Human diffuse large B lymphoma cell TMD8; experiment: Inhibition of proliferation of TMD8 cells in vitro (MTT, 72 h); type: cell-based
Description: (§1) Cell suspensions (Ramos: 10000 cells/well; TMD8: 12000 cells/well) were seeded in a 96-well plate, placed in an incubator for 2 hours at 37° C., after the cell state was stabilized, different concentrations of tested compounds were added to each well (each concentration was set with 3 duplicate wells), and blank control (only containing culture solution, but not containing cells), negative control (only adding cells, but not adding compounds) and positive compound control were set at the same time. After 72 h treatment, 20 μL MTT (5 mg/ml) was added to each well and incubated for 4 h at 37° C. 100 μL triple solution (10% SDS, 5% isobutanol, 0.01 M HCl) was added and placed overnight at 37° C. The OD value was measured with microplate enzyme-labeled instrument SPECTRA MAX Plus 384 with adjustable wavelength at 570 nm.
(§2) The inhibition rate of the compound was obtained by the following formula: […]
(§3) The IC50 value was obtained by four-parameter regression using the software attached to the microplate reader.

BTK = BTK (Homo sapiens, UniProt Q06187); settings: disclosed in patent CN108101905A; cited from earlier work
[3] = system: Human B lymphoma cell Ramos (Burkitt lymphoma); experiment: Inhibition of proliferation of Ramos cells in vitro (MTT, 72 h); type: cell-based
Description: as §1, §2, §3

[4] = Metabolic stability test in mouse liver microsomes; type: in vitro ADME; settings: MLM, 0.1 μM drug, 0.33 mg/ml microsomes, NADPH
Description: (§4) Liver microsomes were incubated in a 96-well plate, and the volume of each incubated system was 450 μL with a medium of 0.1 M Tris buffer (pH 7.4), including liver microsomes with a final concentration of 0.33 mg/ml, 0.1 μM of tested drugs and 5.0 mM MgCl2, 0.01% DMSO, 0.005% BSA and 1.0 mM NADPH. Incubated at 37° C. for 10 min, NADPH was added to initiate the reaction, and 50 μL was taken out and added with the same volume of methanol to terminate the reaction after 0, 7, 17, 30 and 60 min, respectively.
(§5) S17016 in incubated samples was determined by LC/MS/MS with electrospray ionization (ESI) as the ion source and multi-reaction monitoring (MRM) as the scanning mode.
(§6) The experimental results of metabolic stability in vitro of S17016 in different liver microsomes (HLM: human liver microsomes; RLM: rat liver microsomes; MLM: mouse liver microsomes) were shown in Table 9 and FIG. 3 below.

[5] = target: BTK tyrosine kinase protein (Homo sapiens, UniProt Q06187); experiment: Inhibitory activity evaluation of Bruton kinase (BTK) at molecular level (ELISA); type: biochemical; settings: ATP 5 μM
Description: The enzyme reaction substrate Poly (Glu, Tyr)4:1 was diluted with potassium-free PBS (10 mM sodium phosphate buffer, 150 mM NaCl, pH 7.2-7.4) to 20 μg/ml, and coated enzyme plate. After reacting at 37° C. for 12-16 hours, the plate was washed three times with 200 μL/well T-PBS (PBS containing 0.1% Tween-20) and dried in 37° C. oven for 1-2 hours. 49 μL/well ATP solution (final concentration was 5 μM) diluted with a reaction buffer (50 mM HEPES pH 7.4, 50 mM MgCl2, 0.5 mM MnCl2, 0.2 mM Na3VO4, 1 mM DTT) was firstly added into the substrate-coated plate. 1 μL compound to be tested (compound well) or DMSO with corresponding concentration (negative control well) was added into each well, and enzyme-free control well was set up for each experiment. Then 50 μL of BTK tyrosine kinase protein diluted with reaction buffer was added to start the reaction.
The above reaction system was placed in a shaking table (100 rpm) for 1 hour at 37° C., then the plate was washed with T-PBS for three times, and the primary antigen PY99 100 μL/well (Santa Cruz) was added, and the reaction was carried out in a shaking table for 0.5 hours at 37° C. […]

in vivo = settings: male, Sprague-Dawley (SD), rat
Description: Fourteen SD rats, male, weighing 200-220 g, were randomly divided into 4 groups (4/3 rats in each group) and given the tested compounds by intragastric administration and intravenous administration respectively.
0.5% sodium carboxymethyl cellulose (CMC-Na) containing 1% Tween 80 was formulated for intragastric administration, and 5% DMSO/5% Tween 80/90% normal saline was formulated for intravenous administration.
Fasting for 12 hours and drinking water freely before the test. Eat uniformly 2 hours after administration.
At the above set time point, 0.3 ml of venous blood was taken through the posterior venous plexus of the rat eyeball, placed in a heparinized test tube, centrifuged at 11000 rpm for 5 minutes, and the plasma was separated, frozen in the fridge at −20° C.
The concentration of S17016 in rat plasma was determined by LC/MS/MS.

[6] = Metabolic stability test in rat liver microsomes; type: in vitro ADME; settings: RLM, 0.1 μM drug, 0.33 mg/ml microsomes, NADPH
Description: as §4, §5, §6

[7] = Metabolic stability test in human liver microsomes; type: in vitro ADME; settings: HLM, 0.1 μM drug, 0.33 mg/ml microsomes, NADPH
Description: as §4, §5, §6

[8] = system: human lymphoma TMD8 xenograft; experiment: Anti-tumor activity in vivo, TMD8 xenograft tumor model; set-up: species or system Mice; settings: for Tumor volume: 17th day, mean ± SEM
Description: (§7) • 1) Species: Mice • 2) Strain: CB-17 SCID • 3) Age and body weight: 6-8 weeks; 18-22 g • 4) Sex: Female • 5) Supplier: Beijing Vital River Laboratory Animal Technology Co., Ltd. REC-1 Xenograft Tumor Model • 1) Species: Mice • 2) Strain: BALB/c nude mice • 3) Age and body weight: 6-8 weeks; 17-20 g • 4) Sex: Female • 5) Supplier: Shanghai Lingchang Biotechnology Co., Ltd.
(§8) Conventional treatment was carried out twice a week. When the cell saturation was 80%-90%, the cells were collected, counted and inoculated.
Tumor cell inoculation: 0.2 mL 10×10^6 Human lymphoma TMD8 cells were subcutaneously inoculated into the right back of each nude mouse (PBS:Matrigel=1:1). When the average tumor volume reached 104 mm^3, group administration began. Each group of 6 mice was grouped according to the tumor volume by random grouping software based on Excel.
(§9) The health status and death status of animals were monitored every day. Routine examinations included observing the effects of tumor growth and drug treatment on daily behaviors of animals, such as behavioral activities, food intake and water intake (visual inspection only), weight change (weight measurement three times a week), appearance signs or other abnormal conditions. Based on the number of animals in each group, the number of animal deaths and side effects in each group were recorded.
(§10) Tumor measurement and experimental indexes: the experimental index was to investigate whether the tumor growth is inhibited, delayed or cured. The tumor diameter was measured with vernier caliper three times a week.
(§11) TGI (%), reflecting the tumor growth inhibition rate.
(§12) Relative tumor proliferation rate T/C (%): the calculation formula is as follows:
(§13) T/C %=TRTV/CRTV×100% (TRTV: Relative tumor volume in treatment group; CRTV: Relative tumor volume in negative control group).
(§14) Statistical analysis: Statistical analysis, including the mean value of tumor volume and standard error (SEM) at each time point in each group. […] Three or more groups were compared with one-way ANOVA. If there were significant differences in F values, Games-Howell method was used to test. All data were analyzed with SPSS 17.0. p<0.05 was considered as significant difference.

[9] = system: human mantle cell lymphoma REC-1 xenograft; experiment: Anti-tumor activity in vivo, REC-1 xenograft tumor model; set-up: species or system Mice; settings: for T/C (%) / TGI (%): day 15; for Tumor volume (mm^3) (Day 15): day 15, mean ± SEM
Description: as §7, §8
0.2 mL 5×10^6 REC-1 cells were subcutaneously inoculated into the right back of each nude mouse (PBS:Matrigel=1:1). When the average tumor volume reached 100 mm^3, group administration began. Each group of 6 mice was grouped according to the tumor volume by random grouping software based on Excel.
as §9, §10, §11, §12, §13, §14

[10] = Oral bioavailability of earlier compound; settings: in vivo

BTK tyrosine kinase protein, sequence (Q06187 whole entry): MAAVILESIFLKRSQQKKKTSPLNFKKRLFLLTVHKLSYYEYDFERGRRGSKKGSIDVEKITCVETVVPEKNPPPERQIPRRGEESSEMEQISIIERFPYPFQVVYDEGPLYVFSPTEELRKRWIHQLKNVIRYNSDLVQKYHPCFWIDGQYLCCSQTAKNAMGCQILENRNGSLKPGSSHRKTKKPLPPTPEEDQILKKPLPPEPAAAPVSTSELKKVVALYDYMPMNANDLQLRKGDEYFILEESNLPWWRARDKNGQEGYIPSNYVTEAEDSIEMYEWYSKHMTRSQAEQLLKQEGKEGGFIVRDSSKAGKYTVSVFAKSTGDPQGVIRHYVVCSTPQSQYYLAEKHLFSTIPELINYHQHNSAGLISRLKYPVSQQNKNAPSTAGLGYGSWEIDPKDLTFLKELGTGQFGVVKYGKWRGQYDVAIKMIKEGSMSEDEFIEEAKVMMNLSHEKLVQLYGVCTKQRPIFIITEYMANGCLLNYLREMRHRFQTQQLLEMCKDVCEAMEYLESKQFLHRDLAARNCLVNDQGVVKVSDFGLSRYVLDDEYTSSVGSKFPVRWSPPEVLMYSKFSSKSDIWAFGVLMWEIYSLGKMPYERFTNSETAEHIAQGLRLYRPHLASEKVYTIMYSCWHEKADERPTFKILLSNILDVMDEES
BTK, sequence (Q06187 whole entry): as above

SMILES: C=C1c2c(-c3ccc(Oc4ccccc4)cc3)c3c(N)ncnc3n2CC1NC(=O)C#CC (stereo not drawn) [Compound S19s]
- stability in metabolism [1]: unstable in metabolism
- IC50 [2]: 17 nM

SMILES: C=CC(=O)N[C@@H]1CCc2c(-c3ccc(Oc4ccccc4)cc3)c3c(N)ncnc3n2C1 [Compound S1]
- BTK inhibitory activity (BTK): high BTK inhibitory activity
- stability in metabolism [1]: unstable in metabolism
- IC50 [3]: 94700 nM
- IC50 [2]: 6 nM

SMILES: C=C1c2c(-c3ccc(C(=O)Nc4ccccn4)cc3)c3c(N)ncnc3n2C[C@H]1NC(=O)C#CC [Compound S17016]
- Absolute value of peak area, M0: parent compound [4]: 19033
- M0: parent compound, share of peak area [4]: (97.82%)
- IC50 [5]: 0.5 nM
- bioavailability (in vivo; in vivo): 24.8%
- Vd (in vivo; in vivo, iv, 1 mg/kg): 0.221 L/kg
- clearance (in vivo; in vivo, iv, 1 mg/kg): 3.33 mL/min/kg
- half-life (in vivo; in vivo, iv, 1 mg/kg): 75.6 min
- AUC (in vivo; in vivo, po, 3 mg/kg): 3860 ng·h/mL
- Cmax (in vivo; in vivo, po, 3 mg/kg): 2700 ng/mL
- Tmax (in vivo; in vivo, po, 3 mg/kg): 15 min
- Absolute value of peak area, M0: parent compound [6]: 12675
- M0: parent compound, share of peak area [6]: (84.07%)
- Absolute value of peak area, M0: parent compound [7]: 20285
- M0: parent compound, share of peak area [7]: (97.45%)
- Tumor volume ([8]; 5 mg/kg): 912 mm^3 and 912 ± 114 mm^3
- T/C (%) ([8]; 5 mg/kg, day 17): 49.27%
- TGI (%) ([8]; 5 mg/kg, day 17): 53.78%
- Tumor volume ([8]; 10 mg/kg): 553 mm^3 and 553 ± 56 mm^3
- T/C (%) ([8]; 10 mg/kg, day 0): 100%
- T/C (%) ([8]; 10 mg/kg, day 5): 48.31%
- T/C (%) ([8]; 10 mg/kg, day 8): 39.22%
- T/C (%) ([8]; 10 mg/kg, day 10): 34.25%
- T/C (%) ([8]; 10 mg/kg, day 12): 30.90%
- T/C (%) ([8]; 10 mg/kg, day 15): 30.56%
- T/C (%) ([8]; 10 mg/kg, day 17): 29.85%
- TGI (%) ([8]; 10 mg/kg, day 17): 74.35%
- IC50 [3]: 3150 nM
- T/C (%) ([9]; 15 mg/kg): 30%
- TGI (%) ([9]; 15 mg/kg): 73%
- Tumor volume (mm^3) (Day 15) ([9]; 15 mg/kg, 15 mg/kg): 1034 mm^3 and 1034 ± 202 mm^3
- T/C (%) ([9]; 30 mg/kg): 19%
- TGI (%) ([9]; 30 mg/kg): 83%
- Tumor volume (mm^3) (Day 15) ([9]; 30 mg/kg, 30 mg/kg): 680 mm^3 and 680 ± 106 mm^3
- IC50 [2]: 3 nM

SMILES: CC#CC(=O)N[C@@H]1CCc2c(-c3ccc(Oc4ccccc4)cc3)c3c(N)ncnc3n2C1 [Compound S10]
- IC50 [5]: < 10 nM
- BTK inhibitory activity (BTK): high BTK inhibitory activity
- stability in metabolism [1]: unstable in metabolism
- IC50 [3]: 8720 nM
- IC50 [2]: 30 nM

SMILES: C=CC(=O)N1CCC[C@@H](n2nc(-c3ccc(Oc4ccccc4)cc3)c3c(N)ncnc32)C1 [Ibrutinib, reference compound]
- bioavailability (in vivo; plasma, oral, 3 mg/kg): 4%
- AUC (in vivo; plasma, po, 3 mg/kg): 57 ng·h/mL
- Tumor volume ([8]; 25 mg/kg): 661 mm^3 and 661 ± 168 mm^3
- TGI (%) ([8]; 25 mg/kg, day 17): 68.18%
- IC50 [3]: 12900 nM
- TGI (%) ([9]; 25 mg/kg): 64%
- Tumor volume (mm^3) (Day 15) ([9]; 25 mg/kg, 25 mg/kg): 1323 mm^3 and 1323 ± 195 mm^3
- IC50 [2]: 5 nM

SMILES: C=CC(=O)NC1Cn2c(c(-c3ccc(C(=O)Nc4ccccn4)cc3)c3c(N)ncnc32)C1=C (stereo not drawn) [Compound S20s]
- oral bioavailability [10]: not ideal
- IC50 [3]: 14300 nM
- IC50 [2]: 4 nM

SMILES: CC#CC(=O)N1CCC[C@H]1c1nc(-c2ccc(C(=O)Nc3ccccn3)cc2)c2c(N)nccn12 [Acalabrutinib]
- IC50 [3]: 38200 nM
- IC50 [2]: 23 nM

SMILES: C=CC(=O)NC1Cn2c(c(-c3ccc(Oc4ccccc4)cc3)c3c(N)ncnc32)C1=C (stereo not drawn) [Compound S18s, reference compound]
- stability in metabolism [1]: unstable in metabolism
- T/C (%) ([8]; 15 mg/kg, day 0): 100%
- T/C (%) ([8]; 15 mg/kg, day 6): 53.51%
- T/C (%) ([8]; 15 mg/kg, day 8): 47.28%
- T/C (%) ([8]; 15 mg/kg, day 11): 37.73%
- T/C (%) ([8]; 15 mg/kg, day 13): 34.97%
- IC50 [3]: 5040 nM
- IC50 [2]: 16 nM

— patent US12384795B2, “Pyrimido[5,4-b]pyrrolizin compound, optical isomer thereof, preparation method therefor and use thereof” (SHANGHAI INSTITUTE OF MATERIA MEDICA, CHINESE ACADEMY OF …, priority 2019, dated 2025)
